Results published in patent publication US8188074B2 (priority 2001, dated 2012).
Like-named read-outs stand apart in the source and are kept apart here.

Tests used:
E. coli [1] = assay: Photoinactivation of E. coli; type: cell-based; conditions: for log change in CFU/ml / percentage cell survival / log change CFU/ml: E. coli; for log change CFU/ml: laser light
Experimental: (§1) Cell inactivation was then measured.

C. albicans = assay: Photoinactivation of C. albicans; type: cell-based, Candida albicans; conditions: 10 μM; laser light at 0.1 W
Experimental: as §1

S. aureus = conditions: 10 μM, laser light (665 nm) 0.1 W
Experimental: (§2) Stock solutions of the photosensitisers were made up to 5 mM in dimethylsulfoxide (DMSO). The 5 mM stock was further diluted in DMSO to a working concentration of 1 mM. All photosensitisers were stored in foil covered vials at room temperature until required.
(§3) The microorganisms were grown until in the mid-logarithmic phase and then harvested and resuspended.
(§4) The log or stationary phase cells were collected by centrifugation and washed twice in 0.1 M potassium phosphate buffer (pH 7.0). Following washing, the cells were resuspended in the same buffer to an absorbance of 0.87 at 650 nm.
(§5) 25 ml of the prepared cell suspension was incubated with 0.25 mls of a 1 mM stock solution of photosensitiser (giving a final concentration of 10 μM) in a 250 ml sterile foil covered conical flask. The suspension was incubated for 30 minutes in the dark in a 37° C. shaking incubator at 250 rpm.
(§6) After incubation with 10 μM phenothiazinium compound, 10 ml of the bacterial culture was aseptically transferred to a sterile cell. This consisted of a sealed vial with a sealed capillary tube inserted, into which the optical fibre could be placed. […]
(§7) 50 ml of the illuminated and non-illuminated samples of the suspension were removed and diluted in 0.1 M pH 7.0 potassium phosphate buffer. […] Cell inactivation was then measured.

E. coli [2] = test system: E. coli
P. aeruginosa = assay: Photoinactivation of P. aeruginosa; conditions: 10 μM, laser light (665 nm) 0.1 W
Experimental: as §2, §3, §4, §5, §6, §7

[3] = Octanol-buffer partition coefficient
From the text: The octanol buffer partition coefficient (p) determines the lipophilicity of the drug.

[4] = test system: RIF-1 murine fibrosarcoma cells; assay: Cellular uptake in RIF-1 cells; type: cell-based; conditions: 2 h incubation, solubilised in 2% SDS, fluorescence
[5] = patients after administration; cited from earlier work
[6] = 30 min with 10 μM, halogen lamp 60 minutes at 1.3 mW/cm^2
[7] = octanol-buffer partition coefficient

3,7-(tetra-n-butylamino)-phenothiazin-5-ium [Compound 2]
log change in CFU/ml of washed versus unwashed E. coli cells, FIG. 10 (E. coli [1]; 10 μM, washed twice, laser light (665 nm) 0.1 W for 4 minutes): little difference
log change in CFU/ml (E. coli [1]; [6]): 5.1 log10
percentage cell survival (E. coli [1]; [6]): 0.001%
log change in CFU/ml (E. coli [1]; 30 min with 10 μM, illuminated 15 minutes at 1.3 mW/cm^2): 4.59 log10 units
log change in CFU/ml (E. coli [1]; 30 min with 50 μM, illuminated 15 minutes at 1.3 mW/cm^2): 2.15 units
log change CFU/ml (E. coli [1]; 14 minute illumination at 0.1 W): 5.69 log
log change CFU/ml (E. coli [1]; 20 minute illumination at 0.1 W, number of CFU too small to be statistically reliable): ~8.5 units
antibacterial activity, E. coli resuspended in nutrient medium, FIG. 7 (E. coli [1]; nutrient medium, 10 μM, 60 minutes at 1.3 mW/cm^2): highest antibacterial activity
killing of Candida albicans in the light, FIG. 16 (C. albicans): readily destroyed
bacteria inactivated (S. aureus; 1 minute): ~99%
cell kill (S. aureus; 10 minutes): ~5 logs
growth of an E. coli culture in the dark compared to control, FIG. 11 (E. coli [2]; 10 μM in growth media, dark, 37° C., 6 hours, turbidity at 550 nm): greatest inhibition
growth of E. coli after addition of photosensitiser at 3 hours, in the dark, FIG. 12 (E. coli [2]; 10 μM, dark): continuing growth
growth of E. coli after addition of photosensitiser at 3 hours, in the light, FIG. 12 (E. coli [2]; 10 μM, light): complete elimination of growth
cell kill (P. aeruginosa; 2 minutes): greater than 99%
cell kill (P. aeruginosa; 10 minutes): ~4 logs

3-(N,N-diethanolamino)-7-(N,N-dipentylamino)-phenothiazin-5-ium iodide [Compound 28]
Log P [3]: +1.1

CCCCCCN(CCCCCC)c1ccc2nc3ccc(N(CCCCCC)CCCCCC)cc3[s+]c2c1.[Br-] [Compound 4]
Log P [3, 7]: +1.3
Uptake at PDT LD50 [4]: 1.6 nmol/mg protein
log change in CFU/ml (E. coli [1]; [6]): 0.19 log10
percentage cell survival (E. coli [1]; [6]): 65.3%

CCN(CC)c1ccc2nc3ccc(N(CC)CC)cc3[s+]c2c1.[Cl-] [Compound 6, ethylene blue, reference compound]
Log P [3, 7]: +0.2
Uptake at PDT LD50 [4]: 2.9 nmol/mg protein

CCCCN(CCCC)c1ccc2nc3ccc(N4CCOCC4)cc3[s+]c2c1.[I-] [Compound 24]
Log P [3, 7]: +1.0

Oc1cccc(-c2c3nc(c(-c4cccc(O)c4)c4ccc([nH]4)c(-c4cccc(O)c4)c4nc(c(-c5cccc(O)c5)c5ccc2[nH]5)CC4)C=C3)c1 [Foscan]
period of sensitivity to light [5]: approximately 15 days
